Measured values: patent EP4792822A1, “USE OF PEPTIDE AMIDE COMPOUND IN PREPARATION OF DRUG FOR […] AND VOMITING” (Haisco Pharmaceutical Group Co., Ltd., priority 2023, dated 2025)

Tested on: subjects undergoing elective laparoscopic abdominal surgery under general anaesthesia
Experiment: Example 1: phase III, placebo-controlled clinical study of compound 1 injection for postoperative analgesia (morphine rescue; nausea and vomiting recorded)
Assay type: in vivo, patients
Text: This study was a multicentre, randomised, double-blind, placebo-controlled phase III clinical study conducted in China to evaluate the efficacy and safety of compound 1 injection for postoperative analgesia in subjects undergoing elective laparoscopic abdominal surgery under general anaesthesia. […] subjects undergoing elective laparoscopic abdominal surgery under general anaesthesia were enrolled and randomised to two groups: the compound 1 group (136 subjects) and the placebo group (135 subjects). All subjects received an intravenous injection of compound 1 injection or placebo injection within 5 min after the completion of the first NRS score assessment, and the end time of the first postoperative administration was recorded as 0 min. At 8 h and 16 h after the end of the first administration, within a time window of ±15 min, a single corresponding dose of the compound 1 injection or placebo injection was administered intravenously to the subjects.
Resting NRS score assessments were performed in subjects within 5 min before the first postoperative administration, and at 15 min ± 5 min, 30 min ± 5 min, 1 h ± 5 min, 2 h ± 15 min, 4 h ± 15 min, 8 h (within 30 min before the second postoperative administration), 12 h ± 30 min, 16 h (within 30 min before the last postoperative administration), 20 h ± 30 min, and 24 h ± 1 h after the first postoperative administration. The NRS score for resting pain refers to the NRS score assessed when the subject is at rest (e.g., sitting or lying still). If the subject was unconscious at a scheduled NRS assessment time point, the score was recorded as follows: if the previous NRS score was ≥ 2, the current NRS score was recorded as 2; if the previous NRS score was < 2, the current NRS score was recorded as the previous score. Meanwhile, it was documented that the subject was unconscious at the time of assessment.
A morphine injection was administered via intravenous injection for rescue treatment if the resting pain NRS score was ≥ 4 at any pain assessment time point after the first postoperative administration, or if the subject complained of pain at any time point and the resting pain NRS score was ≥ 4. It was recommended that the time from the subject's NRS assessment to actual administration of morphine injection be ≤ 30 min; an initial intravenous dose of 3 mg be administered, followed by additional doses as needed. It was also recommended that the interval between two rescue treatments be ≥ 2 h and that the interval between rescue medication and study drug administration be ≥ 1 h.
Prophylactic antiemetic treatment was prohibited during the study. After the first postoperative administration, the investigator administered antiemetic agents based on the occurrence of nausea and vomiting in the subject, and the dosage of the antiemetic agents was recorded. Tropisetron was the preferred antiemetic agent (an initial intravenous dose of 2.5 mg, followed by additional doses as needed, not to exceed 10 mg within 24 h). If tropisetron was insufficiently effective, other agents were used by the investigator in accordance with routine clinical practice.
Abdominal surgery, female sex, non-smoking status, and postoperative opioid use are known as risk factors leading to postoperation nausea and vomiting (PONV). Two studies of compound 1 injection for postoperative analgesia after abdominal surgery were completed. Morphine (Example 1) and flurbiprofen axetil (Example 2) were used as rescue analgesic agents in the two studies, respectively, and prophylactic antiemetic treatment was prohibited during the studies. The study results were summarised as follows.

[1] = Example 1, No morphine use (no rescue analgesia), N = 91
[2] = Example 1, No morphine use, listed as compound 1
[3] = Example 1, Overall, safety analysis set, N = 136
[4] = Example 1, Overall, safety analysis set, N = 136, listed as compound 1
[5] = within 0-12 h and 0-24 h after the first postoperative administration, compared with placebo
[6] = within 0-24 h after the first administration, compared with placebo

How did the “overall safety and tolerability” value (Example 1) turn out when `CC(=O)N1CC2(CCN(C(=O)[C@@H](CCCCN)NC(=O)[C@@H](CC(C)C)NC(=O)[C@@H](Cc3ccccc3)NC(=O)[C@H](N)Cc3ccccc3)CC2)C1` [Compound 1, (2R)-N-[(1R)-1-(2-acetyl-2,7-diazaspiro[3.5]nonane-7-carbonyl)-5-amino-pentyl]-2-[[(2R)-2-[[(2R)-2-amino-3-phenyl-propionyl]amino]-3-phenylpropionyl]amino]-4-methyl-pentanamide] was run?
Its value is “good overall safety and tolerability”.

And the “Change in incidence of nausea relative to placebo” value (Example 1, No morphine use)?
The value was 25.7% reduction.

And the “Change in incidence of vomiting relative to placebo” value (Example 1, No morphine use)?
The value was 20.1% reduction.

What about the “Nausea (incidence)” value [1] of the same compound?
The value was 16.5%.

And the “Vomiting (incidence)” value [1]?
The value was 18.7%.

And the “Change in incidence of nausea relative to placebo” value [2]?
The value was 25.7 % reduction.

What about the “Change in incidence of vomiting relative to placebo” value [2] of the same compound?
Its value is 20.1 % reduction.

What about the “Change in incidence of nausea relative to placebo” value (Example 1, Overall) of the same compound?
Its value is 35.8% reduction.

And the “Change in incidence of vomiting relative to placebo” value (Example 1, Overall)?
Its value is 52.8% reduction.

And the “Nausea (incidence)” value [3]?
Its value is 17.6%.

What about the “Vomiting (incidence)” value [3] of the same compound?
Its value is 15.4%.

And the “Nausea (incidence)” value [4]?
The value was 17.6%.

What about the “Vomiting (incidence)” value [4] of the same compound?
Its value is 15.4%.

What about the “PID at each time point” value (compared with placebo) of the same compound?
Its value is “significantly lower than those in the placebo group”.

What about the “SPID0-12 h after the first postoperative administration” value (compared with placebo) of the same compound?
Its value is “significantly lower than those in the placebo group”.

What about the “SPID0-24 h after the first postoperative administration” value (compared with placebo) of the same compound?
The value was “superior to that in the placebo group”.

What about the duration of analgesia (compared with placebo) of the same compound?
Its duration of analgesia is “significantly longer than those in the placebo group”.

And the “incidences of adverse reactions” value (compared with placebo)?
The value was “comparable to those in the placebo group”.

And the “incidences of adverse reactions (including nausea and vomiting)” value (compared with placebo)?
Its value is “significantly lower than those in the placebo group”.

And the “incidences of the main TEAEs (including nausea and vomiting)” value (compared with placebo)?
The value was “significantly lower than those in the placebo group”.

What about the “subject and investigator satisfaction scores for postoperative analgesia” value (compared with placebo) of the same compound?
The value was “significantly higher than those in the placebo group”.

And the “time to the first use of rescue analgesic agents” value (compared with placebo)?
Its value is “significantly longer than those in the placebo group”.

What about the “effect on PONV in patients after abdominal surgery” value (summary of both Phase III studies (Example 1)) of the same compound?
Its value is “preventive and/or alleviating effect on PONV”.

What about the “mean cumulative dosage of rescue analgesic agents” value [5] of the same compound?
Its value is “significantly lower than those in the placebo group”.

And the “proportion of subjects with NRS scores ≤ 3” value [5]?
The value was “significantly higher than those in the placebo group”.

And the “mean cumulative dosage of antiemetic agents” value [6]?
The value was “significantly lower than those in the placebo group”.

What about the “proportion of subjects using antiemetic agents” value [6] of the same compound?
Its value is “significantly lower than those in the placebo group”.

And the “proportion of subjects using rescue analgesic agents” value (within 0-24 h after the first postoperative administration, compared with placebo)?
The value was “significantly lower than those in the placebo group”.
